What was measured:
[1] = biological target: FAK (Homo sapiens (Human), UniProt Q05397); assay: Biochemical assay for FAK activity (LANCE TR-FRET, ULight-poly Glu,Ala,Tyr substrate); settings: GST-tagged FAK, 120 min reaction
Method: (§1) Biochemical Assay for FAK/Pyk2 Activity
(§2) GST-tagged FAK was purchased from Invitrogen (PV3832). GST-tagged PYK2 was purchased from Invitrogen (PV4567). The activity of FAK/PYK2 was measured by monitoring the phosphorylation of a fluorophore labeled ULight-poly Glu, Ala, Tyr (1:1:1) peptide substrate from Perkin Elmer (TRF0101) in the presence of ATP. The phosphorylated tyrosine residue was recognized by a LANCE Europium chelate labeled anti-phosphotyrosine (PY20) antibody from Perkin Elmer (AD0066). This brought the fluorophore and europium chelate in close proximity ([…]) that upon excitation at 320 nm by an Envision (PerkinElmer), energy can be transferred from the donor Europium chelate to the acceptor fluorophore. […] The strength of the signal was, therefore, directly proportional to the FAK/PYK2 activity.
(§3) To measure inhibitory activity of FAK/PYK2 inhibitors, compounds were first prepare as a 1 mM stock in 100% DMSO and 3-fold serial dilution was performed in a 96-well plate (Corning, 3897) to generate 12 different concentration of 100× stock. A 5 μl of 100× stock of each concentration was added to wells containing 95 μl of 1× reaction buffer (40 mM Tris, pH7.5, […], 1 mM DTT and 1 mM CHAPS) to generate 5× stock. Then 2 μl of 5× stock of each concentration was added to a 384 wells-OptiPlate (PerkinElmer, 6007299).
(§4) For FAK, 4 μl of 2.5 nM FAK, 1 ul of 8 μg/μl BSA and 1.5 μl of 666 nM ULight-poly Glu, Ala, Tyr (1:1:1) peptide substrate, prepared in above reaction buffer, were added to each well. The reaction was initiated by adding 1.5 μl of 33.3 μM ATP. The reaction was allowed to proceed for 120 min before being quenched with 5 μl of 40 mM EDTA stop buffer prepared in 1×LANCE detection buffer (PerkinElmer, CR97-100).
(§5) Upon quenching of the reaction, 5 μl of 8 nM anti-phosphotyrosine antibody was added to each well and incubated for 60 minutes. The plate was measured using an Envision (PerkinElmer) based on the theory mentioned above.

[2] = biological target: PYK2 (Homo sapiens (Human), UniProt Q14289); assay: Biochemical assay for PYK2 activity (LANCE TR-FRET, ULight-poly Glu,Ala,Tyr substrate); settings: GST-tagged PYK2, 40 min reaction
PYK2, sequence (Q14289 whole entry): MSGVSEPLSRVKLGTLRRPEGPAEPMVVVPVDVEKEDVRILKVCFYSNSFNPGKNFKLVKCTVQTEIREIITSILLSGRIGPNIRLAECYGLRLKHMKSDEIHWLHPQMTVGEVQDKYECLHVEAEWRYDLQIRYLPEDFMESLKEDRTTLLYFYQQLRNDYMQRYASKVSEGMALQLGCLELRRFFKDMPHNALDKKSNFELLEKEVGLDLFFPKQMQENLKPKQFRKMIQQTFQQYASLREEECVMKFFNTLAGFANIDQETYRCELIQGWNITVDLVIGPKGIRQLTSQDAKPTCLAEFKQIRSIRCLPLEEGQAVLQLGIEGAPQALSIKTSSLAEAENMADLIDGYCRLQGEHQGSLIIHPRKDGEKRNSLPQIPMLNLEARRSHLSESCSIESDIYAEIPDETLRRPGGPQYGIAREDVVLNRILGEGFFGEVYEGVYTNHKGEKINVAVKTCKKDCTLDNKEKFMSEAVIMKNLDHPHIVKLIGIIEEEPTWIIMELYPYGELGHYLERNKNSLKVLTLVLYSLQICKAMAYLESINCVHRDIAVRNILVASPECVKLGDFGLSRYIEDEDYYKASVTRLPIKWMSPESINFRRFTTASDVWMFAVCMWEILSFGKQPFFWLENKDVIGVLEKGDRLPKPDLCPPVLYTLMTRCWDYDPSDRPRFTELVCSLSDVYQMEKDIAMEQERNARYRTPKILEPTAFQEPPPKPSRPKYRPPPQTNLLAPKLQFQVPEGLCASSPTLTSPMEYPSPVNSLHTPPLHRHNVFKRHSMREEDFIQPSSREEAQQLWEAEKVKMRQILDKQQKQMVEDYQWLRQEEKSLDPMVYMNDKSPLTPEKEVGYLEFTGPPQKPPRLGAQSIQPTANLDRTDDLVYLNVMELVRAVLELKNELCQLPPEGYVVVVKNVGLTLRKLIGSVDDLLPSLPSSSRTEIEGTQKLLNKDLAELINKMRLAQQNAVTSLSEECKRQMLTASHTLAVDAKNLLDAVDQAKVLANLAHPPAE
Method: as §1, §2, §3
as §4, with “PYK2, 5” for “FAK, 4”, “2” for “2.5”, “PYK2” for “FAK, 1 ul of 8 μg/μl BSA”, “46.6” for “33.3”, “40” for “120”
as §5

FAK, sequence (Q05397 whole entry): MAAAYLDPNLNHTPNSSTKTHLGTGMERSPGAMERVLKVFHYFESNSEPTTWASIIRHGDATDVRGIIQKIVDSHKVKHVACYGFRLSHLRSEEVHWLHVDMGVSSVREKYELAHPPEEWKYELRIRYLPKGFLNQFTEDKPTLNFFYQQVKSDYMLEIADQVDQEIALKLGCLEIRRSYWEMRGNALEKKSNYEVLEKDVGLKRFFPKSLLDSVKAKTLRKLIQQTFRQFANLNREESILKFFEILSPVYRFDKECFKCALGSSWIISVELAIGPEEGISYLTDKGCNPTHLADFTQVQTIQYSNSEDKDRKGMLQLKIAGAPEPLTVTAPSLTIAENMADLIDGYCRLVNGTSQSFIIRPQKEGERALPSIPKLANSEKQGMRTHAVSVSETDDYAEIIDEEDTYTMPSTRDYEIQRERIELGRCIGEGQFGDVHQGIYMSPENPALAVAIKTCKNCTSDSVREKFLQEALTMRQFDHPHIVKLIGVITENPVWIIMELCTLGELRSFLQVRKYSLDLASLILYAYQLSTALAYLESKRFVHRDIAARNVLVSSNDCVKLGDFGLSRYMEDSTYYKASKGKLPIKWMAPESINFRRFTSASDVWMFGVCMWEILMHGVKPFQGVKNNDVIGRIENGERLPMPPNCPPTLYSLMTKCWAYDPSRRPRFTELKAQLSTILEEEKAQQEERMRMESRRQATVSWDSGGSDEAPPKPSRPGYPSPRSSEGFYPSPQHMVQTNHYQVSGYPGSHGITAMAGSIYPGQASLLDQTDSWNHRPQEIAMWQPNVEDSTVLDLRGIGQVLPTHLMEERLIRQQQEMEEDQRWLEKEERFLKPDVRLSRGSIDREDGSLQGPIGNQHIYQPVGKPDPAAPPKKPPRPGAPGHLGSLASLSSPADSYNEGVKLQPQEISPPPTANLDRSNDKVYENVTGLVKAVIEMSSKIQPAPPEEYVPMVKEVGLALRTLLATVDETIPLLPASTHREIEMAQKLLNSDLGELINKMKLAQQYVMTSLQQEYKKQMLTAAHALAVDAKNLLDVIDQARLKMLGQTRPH

| SMILES | IC50 [1] | IC50 [2] |
| --- | --- | --- |
| COc1cc(N2CCOCC2)ccc1Nc1nc2c(c(Nc3ccccc3S(=O)(=O)NC(C)(C)C)n1)C(C)(C)CN2 [Example 117, N-tert-butyl-2-(2-(2-methoxy-4-morpholinophenylamino)-5,5-dimethyl-6,7-dihydro-5H-pyrrolo[2,3-d]pyrimidin-4-ylamino)benzenesulfonamide] | < 0.02 µM | < 0.02 µM |
| COc1cc(N2CCOCC2)ccc1Nc1nc2c(c(Nc3ccccc3S(=O)(=O)NC(C)(C)C)n1)CCN2 [Example 47, N-tert-butyl-2-(2-(2-methoxy-4-morpholinophenylamino)-6,7-dihydro-5H-pyrrolo[2,3-d]pyrimidin-4-ylamino)benzenesulfonamide] | < 0.2 µM | < 0.1 µM |
| COc1cc(N2CCOCC2)ccc1Nc1nc2c(c(Nc3ccccc3NC(C)=O)n1)C(C)(C)CN2 [Example 124, N-(2-(2-(2-methoxy-4-morpholinophenylamino)-5,5-dimethyl-6,7-dihydro-5H-pyrrolo[2,3-d]pyrimidin-4-ylamino)phenyl)acetamide] | < 0.2 µM | < 0.2 µM |
| CNC(=O)c1ccccc1Nc1nc(Nc2ccc(N3CCOCC3)c3c2OCCO3)nc2c1CCN2 [Example 16, N-methyl-2-(2-(8-morpholino-2,3-dihydrobenzo[b][1,4]dioxin-5-ylamino)-6,7-dihydro-5H-pyrrolo[2,3-d]pyrimidin-4-ylamino)benzamide] | < 0.5 µM | < 0.2 µM |
| CC(C)NS(=O)(=O)c1ccccc1Nc1nc(Nc2ccc(C(=O)N3CCCC3)cc2)nc2c1CCN2 [Example 78, N-isopropyl-2-(2-(4-(pyrrolidine-1-carbonyl)phenylamino)-6,7-dihydro-5H-pyrrolo[2,3-d]pyrimidin-4-ylamino)benzenesulfonamide] | < 0.02 µM | < 0.02 µM |
| COc1cc(N2CCOCC2)ccc1Nc1nc2c(c(Nc3ccccc3S(=O)(=O)NCCO)n1)C1(CC1)CN2 [Example 142, N-(2-hydroxyethyl)-2-(2′-(2-methoxy-4-morpholinophenylamino)-6′,7′-dihydrospiro[cyclopropane-1,5′-pyrrolo[2,3-d]pyrimidine]-4′-ylamino)benzenesulfonamide] | > 1 µM | > 1 µM |
| CNC(=O)c1ccccc1Nc1nc(Nc2ccc(N3CCOCC3)cc2OC)nc2c1C(C)CN2 (racemic) [Example 23, (±)-2-(2-(2-methoxy-4-morpholinophenylamino)-5-methyl-6,7-dihydro-5H-pyrrolo[2,3-d]pyrimidin-4-ylamino)-N-methylbenzamide] | < 0.05 µM | < 0.05 µM |
| CNC(=O)c1ccccc1Nc1nc(Nc2cccc3ccoc23)nc2c1C(C)(C)CN2 [Example 131, 2-(2-(benzofuran-7-ylamino)-5,5-dimethyl-6,7-dihydro-5H-pyrrolo[2,3-d]pyrimidin-4-ylamino)-N-methylbenzamide] | < 0.02 µM | < 0.02 µM |
| CC(C)NS(=O)(=O)c1ccccc1Nc1nc(Nc2ccc(C(C)O)cc2)nc2c1CCN2 (stereo not drawn) [Example 69, 2-(2-(4-(1-hydroxyethyl)phenylamino)-6,7-dihydro-5H-pyrrolo[2,3-d]pyrimidin-4-ylamino)-N-isopropylbenzenesulfonamide] | < 0.02 µM | < 0.02 µM |
| CNC(=O)c1ccccc1Nc1nc(Nc2cc(C)nn2C)nc2c1CCN2 [Example 20, 2-(2-(1,3-dimethyl-1H-pyrazol-5-ylamino)-6,7-dihydro-5H-pyrrolo[2,3-d]pyrimidin-4-ylamino)-N-methylbenzamide] | < 1 µM | < 0.5 µM |

More lines, now with the values ahead:

| IC50 [1] | IC50 [2] | SMILES |
| --- | --- | --- |
| < 0.2 µM | < 0.5 µM | COc1cc(N2CCOCC2)ccc1Nc1nc2c(c(Nc3ccccc3S(=O)(=O)NC3CCCCC3)n1)CCN2 [Example 8, N-cyclohexyl-2-(2-(2-methoxy-4-morpholinophenylamino)-6,7-dihydro-5H-pyrrolo[2,3-d]pyrimidin-4-ylamino)benzenesulfonamide] |
| < 0.05 µM | < 0.2 µM | COc1cc(N2CCOCC2)ccc1Nc1nc2c(c(Nc3ccccc3S(=O)(=O)N(C)C)n1)CCN2 [Example 38, 2-(2-(2-methoxy-4-morpholinophenylamino)-6,7-dihydro-5H-pyrrolo[2,3-d]pyrimidin-4-ylamino)-N,N-dimethylbenzenesulfonamide] |
| < 0.02 µM | < 0.02 µM | CC(=O)Nc1ccc(Nc2nc3c(c(Nc4ccccc4S(=O)(=O)NC(C)C)n2)CCN3)cc1 [Example 63, N-(4-(4-(2-(N-isopropylsulfamoyl)phenylamino)-6,7-dihydro-5H-pyrrolo[2,3-d]pyrimidin-2-ylamino)phenyl)acetamide] |
| < 0.02 µM | < 0.02 µM | COc1cc(N2CCOCC2)ccc1Nc1nc2c(c(Nc3ccccc3S(=O)(=O)NC3CCC3)n1)CCN2 [Example 6, N-cyclobutyl-2-(2-(2-methoxy-4-morpholinophenylamino)-6,7-dihydro-5H-pyrrolo[2,3-d]pyrimidin-4-ylamino)benzenesulfonamide] |
| < 0.02 µM | < 0.02 µM | CNC(=O)c1ccccc1Nc1nc(Nc2ccc(N3CCOCC3)cc2OC)nc2c1C(C)(C)CN2 [Example 37, 2-(2-(2-methoxy-4-morpholinophenylamino)-5,5-dimethyl-6,7-dihydro-5H-pyrrolo[2,3-d]pyrimidin-4-ylamino)-N-methylbenzamide] |
| < 0.02 µM | < 0.02 µM | CNC(=O)c1ccccc1Nc1nc(Nc2ccc(N3CCOCC3)cc2OC)nc2c1[C@H](C)CN2 [Example 35, (S)-2-(2-(2-methoxy-4-morpholinophenylamino)-5-methyl-6,7-dihydro-5H-pyrrolo[2,3-d]pyrimidin-4-ylamino)-N-methylbenzamide] |
| < 0.1 µM | < 0.1 µM | COc1cc(N2CCOCC2)ccc1Nc1nc2c(c(Nc3ccccc3S(=O)(=O)NC3CCCC3)n1)C1(CC1)CN2 [Example 145, N-cyclopentyl-2-(2′-(2-methoxy-4-morpholinophenylamino)-6′,7′-dihydrospiro[cyclopropane-1,5′-pyrrolo[2,3-d]pyrimidine]-4′-ylamino)benzenesulfonamide] |
| < 0.02 µM | < 0.02 µM | COc1cc(N2CCOCC2)ccc1Nc1nc2c(c(Nc3ccccc3S(=O)(=O)N(C)C)n1)C1(CC1)CN2 [Example 151, 2-(2′-(2-methoxy-4-morpholinophenylamino)-6′,7′-dihydrospiro[cyclopropane-1,5′-pyrrolo[2,3-d]pyrimidine]-4′-ylamino)-N,N-dimethylbenzenesulfonamide] |
| < 0.5 µM | < 1 µM | COc1cc(N2CCOCC2)ccc1Nc1nc2c(c(Nc3cccc(C)n3)n1)C(C)CN2 (racemic) [Example 33, (±)-N^2-(2-methoxy-4-morpholinophenyl)-5-methyl-N^4-(6-methylpyridin-2-yl)-6,7-dihydro-5H-pyrrolo[2,3-d]pyrimidine-2,4-diamine] |
| < 0.2 µM | < 0.1 µM | CNC(=O)c1ccccc1Nc1nc(Nc2cccc3ccoc23)nc2c1CCN2 [Example 19, 2-(2-(benzofuran-7-ylamino)-6,7-dihydro-5H-pyrrolo[2,3-d]pyrimidin-4-ylamino)-N-methylbenzamide] |
| < 0.1 µM | < 0.1 µM | CNC(=O)c1ccccc1Nc1nc(Nc2ccc(N3CCOCC3)cc2OC)nc2c1CCN2 [Example 1, 2-(2-(2-methoxy-4-morpholinophenylamino)-6,7-dihydro-5H-pyrrolo[2,3-d]pyrimidin-4-ylamino)-N-methylbenzamide] |
| < 0.02 µM | < 0.02 µM | COc1cc(N2CCOCC2)ccc1Nc1nc2c(c(Nc3ccccc3S(=O)(=O)NC(C)(C)C)n1)C1(CC1)CN2 [Example 136, N-tert-butyl-2-(2′-(2-methoxy-4-morpholinophenylamino)-6′,7′-dihydrospiro[cyclopropane-1,5′-pyrrolo[2,3-d]pyrimidine]-4′-ylamino)benzenesulfonamide] |
| < 0.02 µM | < 0.05 µM | CNS(=O)(=O)c1ccccc1Nc1nc(Nc2ccc(N3CCOCC3)cc2OC)nc2c1CCN2 [Example 4, 2-(2-(2-methoxy-4-morpholinophenylamino)-6,7-dihydro-5H-pyrrolo[2,3-d]pyrimidin-4-ylamino)-N-methylbenzenesulfonamide] |
| < 0.05 µM | < 0.1 µM | COc1cc(N2C(C)COCC2C)ccc1Nc1nc2c(c(Nc3ccccc3S(=O)(=O)NC(C)C)n1)CCN2 (stereo not drawn) [Example 84, 2-(2-(4-(3,5-dimethylmorpholino)-2-methoxyphenylamino)-6,7-dihydro-5H-pyrrolo[2,3-d]pyrimidin-4-ylamino)-N-isopropylbenzenesulfonamide] |
